Consider 1 molecule from patent US20240199600A1, “CONDENSED HETEROCYCLIC COMPOUND HAVING A SULFONAMIDE GROUP OR SALT THEREOF, AGRICULTURAL OR HORTICULTURAL INSECTICIDE OR ANIMAL ECTOPARASITE OR ENDOPARASITE CONTROL AGENT COMPRISING THE COMPOUND OR THE SALT THEREOF, AND METHOD FOR USING THE COMPOUND OR THE SALT THEREOF, THE INSECTICIDE, OR THE …” (NIHON NOHYAKU CO., LTD., priority 2021, published 2024).

The term mortality denotes the share of the test organisms that died.

Assay [1] has as its system Plutella xylostella. In words: whole plant or invertebrate. Particulars: in Brassica rapa, 144 h, read-out: insecticidal efficacy (corrected mortality rate), activity level. As to the method: Insecticidal test on Plutella xylostella
Adults of P. xylostella were released onto Chinese cabbage seedlings and allowed to lay eggs thereon. […] After air-dried, the seedlings were kept in a thermostatic chamber at 25° C. […] This test was conducted in triplicate using 10 adults of P. xviostella per plot.
Corrected mortality rate (%)100×(Number of hatched larvae in a non-treatment plot-Number of hatched larvae in a treatment plot)/Number of hatched larvae in a non-treatment plot [Math. 3]

For assay [2], the system named is Laodelphax striatelius. Put plainly: whole plant or invertebrate. Particulars: in Oryza sativa, 192 h, read-out: insecticidal efficacy (corrected mortality rate), activity level.
Description: Insecticidal test on Laodelphax striatelius
The sulfonamide group-containing condensed heterocyclic compounds represented by the general formula (1) of the present invention or salts thereof were separately dispersed in water and diluted to 500 ppm. Rice plant seedlings (variety: Nihonbare) were dipped in the agrochenrical dispersions for 30 seconds. After air-dried, each seedling was put into a separate glass test tube and inoculated with ten 3rd-instar larvae of L, striatellus, and then the glass test tubes were capped with cotton plugs. At 8 days after the inoculation, the numbers of surviving larvae and dead larvae were counted to determine the survival rate, the corrected mortality rate was calculated according to the formula shown below, and the insecticidal efficacy was evaluated according to the criteria shown below.

`CN(C)S(=O)(=O)c1cc(C2CC2)cnc1-c1nc2cc(SC(F)(F)F)ccc2o1` [Compound 4-6, 5-cyclopropyl-N,N-dimethyl-2-(5-trifluoromethylthiobenzoxazol-2-yl)pyridine-3-sulfonamide]: the mortality at 500 ppm in assay [1] and in assay [2] was 100% throughout.
